Consider one compound from PMC8333062, “Chemical tools for epichaperome-mediated interactome dysfunctions of the central nervous system” (Nature Communications, 2021).

The target in one data set is T1, CYP1A2 (Homo sapiens, UniProt P05177).
T1 sequence (P05177 1-516): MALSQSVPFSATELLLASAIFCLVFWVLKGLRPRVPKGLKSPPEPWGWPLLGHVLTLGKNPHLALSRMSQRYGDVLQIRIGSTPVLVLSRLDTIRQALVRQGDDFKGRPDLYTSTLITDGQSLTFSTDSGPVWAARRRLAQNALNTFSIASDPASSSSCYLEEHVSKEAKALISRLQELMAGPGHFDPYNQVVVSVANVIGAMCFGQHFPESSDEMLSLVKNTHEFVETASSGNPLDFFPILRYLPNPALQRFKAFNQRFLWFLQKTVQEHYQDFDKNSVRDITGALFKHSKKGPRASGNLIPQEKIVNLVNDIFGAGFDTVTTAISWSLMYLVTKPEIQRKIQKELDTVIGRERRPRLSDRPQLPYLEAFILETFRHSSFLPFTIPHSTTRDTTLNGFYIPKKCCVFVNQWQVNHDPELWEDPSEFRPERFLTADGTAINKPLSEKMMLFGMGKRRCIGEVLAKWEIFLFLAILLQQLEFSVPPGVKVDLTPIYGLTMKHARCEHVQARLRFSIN
Put plainly: Cytochrome P450 profiling, furafylline. The class given is in vitro ADME. The following applies: for % PU-HZ151 remaining: Furafylline. The procedure: To identify cytochrome P450 enzymes responsible for PU-HZ151’s metabolism in human liver microsomes the following procedure was followed. Phosphate buffer (100 mM, pH 7.4) was prepared monthly and stored at 4 °C. Frozen stock solutions of human liver microsomes (Life Technologies; Cat# HMMCPL) were used once after thawing and were not refrozen. NADPH stock solution (50 mM) in distilled water was prepared fresh daily. […] The stock solutions of these P450 inhibitors were prepared in DMSO. […] The concentration of the chemical inhibitors used in the assay were furafylline (10 μM), tranylcypromine (2 μM), ketoconazole (1 μM), troleandomycin (20 μM), orphenadrine (50 μM), montelukast (3 μM), sulfaphenazole (10 μM), benzylnirvanol (1 μM), quinidine (1 μM), and 1-aminobenzotriazole (1 mM) for all the P450 enzymes. Timing of the reactions was started following the addition of NADPH/magnesium chloride mix and PU-HZ151. Time-dependent chemical inhibitors (furafylline, troleandomycin, orphenadrine, and 1-aminobenzotriazole) were preincubated with human microsomes in the presence of NADPH and magnesium chloride for 15 min before the addition of PU-HZ151 and timing of reactions was started after addition of PU-HZ151. […] Following brief vortexing and centrifugation, a 200 µL aliquot of the supernatant was transferred to a tube, and 10 µL of haloperidol (1 µg mL^−1) as internal standard was added. Following brief vortexing and centrifugation, 50 µL of supernatant was added to a 96-well plate for subsequent LC-MS/MS analysis. PU-HZ151 was similarly tested as above in the absence of CYP inhibitors for comparative purposes. All samples were assayed in duplicate. […] This was similarly performed for incubations of PU-HZ151 performed in the absence of CYP inhibitor.

The nature of data set [1]: Acute toxicity, single IV infusion. It counts as in vivo, B6D2F1 mice. The following applies: 2 mg/kg IV once, 14 days. The text has this:
Samus Therapeutics, Inc. Confidential 07-November-2017 […]
other pathologic tissues, such as brain regions afflicted by neurodegeneration).This unique behavior of PU-AD provides the rationale for its favorable therapeutic index. It also provides the rationale for the use of a 124I-labeled PU-AD as a PET imaging agent to 1. detect tissues associated with stress HSP90 and 2. inform on the biodistribution and PK of PU -AD.
To assess acute toxicity of a single intravenous (IV) infusion of PU-AD, B6D2F1 mice (15 males and 15 females/group) were dosed IV once with either vehicle control or PU-AD at a dose of 2 mg/kg, which corresponds to 200x the maximum intended human dose for the PU-AD PET study. […]
normal behavior throughout. […] No abnormal findings were detected during gross necropsy, while complete histopathology evaluation is still pending. […]
To asses if chronic administration of PU -AD presented any toxicities, a preliminary study in 13 (6 male & 7 female) B6C3F1 mice was conducted. […] Thyroid was evaluated because PU-AD contains an […]
124I-PU-AD radiation dosimetry is a key part of this pilot trial, and 124I-PU-AD radiation dosimetry analyses shall be ongoing during the trial. In brief, region -of-interest (ROI) image analysis of 124I-PU-AD PET data allows organ dosimetry, calculated using the MIRD formalism as […]

With `CC(C)(C)CNCCn1c(Sc2cc3c(cc2I)OCO3)nc2c(N)ncnc21` [Compound 85], the results for the “% PU-HZ151 remaining” value on CYP1A2 (15 min), on CYP1A2 (30 min) and at CYP1A2 (60 min) were 65.9%, 47.3% and 26.3%, respectively. For the same compound, at CYP1A2 (furafylline), the “inhibition of PU-HZ151 metabolism” value is reported as 11%. Moreover, the acute toxicity result in data set [1] is listed as “No mortality or morbidity was observed”.
